2 compounds from article PMC8496776, “Staphylococcus aureus Lipase 3 (SAL3) is a surface-associated lipase that hydrolyzes short chain fatty acids” (PLoS ONE, 2021) can be followed below.

Assay [1] addresses T1, rSAL3 (Staphylococcus aureus lipase 3, SAL3) (Staphylococcus aureus, UniProt A0A0H2XHH9).
T1 construct: gene SAUSA300_0641
Briefly: LC-MS/MS loss of OAG without oleic acid release; also protein lipid overlay binding. The assay is classed as biochemical. The settings on record: 2 h, 37 C, PBS; 2 ug/mL OAG; hydrolysis at the sn-2 acetate inferred.

For assay [2], the target named is T1, rSAL3 (Staphylococcus aureus lipase 3, SAL3). Briefly: p-nitrophenol release at […] nm. The conditions noted are these: 2 mM ester, 100 mM Tris HCl, 100 mM NaCl, pH 7, 37 C. The assay is classed as biochemical.

T1 sequence (A0A0H2XHH9 entry or part of it): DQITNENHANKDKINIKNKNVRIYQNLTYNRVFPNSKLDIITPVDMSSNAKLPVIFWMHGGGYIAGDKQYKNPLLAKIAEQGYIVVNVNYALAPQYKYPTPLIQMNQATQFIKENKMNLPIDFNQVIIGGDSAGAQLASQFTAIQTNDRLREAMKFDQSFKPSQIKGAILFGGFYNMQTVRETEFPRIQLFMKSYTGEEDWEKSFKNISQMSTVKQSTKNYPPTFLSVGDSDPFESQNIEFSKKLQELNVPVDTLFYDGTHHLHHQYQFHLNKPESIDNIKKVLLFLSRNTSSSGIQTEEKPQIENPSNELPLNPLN

For the compound `CCCCCCCC/C=C\CCCCCCCC(=O)OCC(CO)OC(C)=O` (centres unmarked) [1-oleoyl 2-acetyl glycerol], in assay [1], the “LC-MS/MS loss of OAG without oleic acid release; also protein lipid overlay bind” value is on record as “marked reduction in the substrate only in reactions containing WT rSAL3”.

Consider `CCCC(=O)Oc1ccc([N+](=O)[O-])cc1` [pNP-C4, paranitrophenol butyrate], for which the specific activity result in assay [2] is reported as “Alanine substitution mutations introduced in rSAL3MUT abolished the activity against pNP-C4”.
